Reference: patent US5506359A, “Cocaine analogues and their use as cocaine drug therapies and therapeutic and imaging agents for neurodegenerative disorders” (priority 1993, dated 1996)
Like-named read-outs stand apart in the source and are kept apart here.

Tests used:
[1] = biological target: T1, dopamine transporter ([^3 H]CFT binding sites, primate caudate-putamen) (Macaca fascicularis, UniProt Q9GJT6); test: Inhibition of [^3 H]CFT binding in monkey caudate-putamen membranes (Table 2); parameters: species or system cynomolgus monkeys (Macaca fascicularis)
T1 construct: from tissue; host or cells: caudate-putamen membranes of cynomolgus monkey brain

[2] = biological target: dopamine transporter, human caudate nucleus and putamen (Homo sapiens, UniProt Q01959); test: [^3 H]CFT binding to homogenates of human caudate nucleus and putamen
Description: In order to determine whether [^3 H]CFT labels sites associated with the dopamine transporter, the binding of [^3 H]CFT to homogenates of human caudate nucleus and putamen, was characterized.

[3] = tested on: [^3 H]CFT binding sites in monkey caudate-putamen; settings: cited from earlier work; for number of binding components: competition curves; for steepness of competition curve: displacement of [^3 H]CFT
[4] = biological target: T2, cocaine recognition sites in monkey caudate-putamen (Macaca fascicularis, UniProt Q9GJT6); test: [^3 H]CFT and [^3 H]cocaine binding in tissue homogenates of monkey caudate-putamen
T2 construct: All studies were conducted in monkey brain caudate-putamen; from tissue; host or cells: monkey brain caudate-putamen homogenates
Experimental: All studies were conducted in monkey brain caudate-putamen for two reasons. […] Second, primates are consistently used to test diagnostic imaging agents and to test for cocaine-like drugs and drug therapies for Parkinson's disease.

[5] = biological target: T2, cocaine recognition sites in monkey caudate-putamen; settings: cited from earlier work
[6] = tested on: cocaine binding sites associated with the dopamine transporter; test: Binding in postmortem Parkinson's diseased putamen / caudate-putamen; parameters: species or system human; settings: tissue homogenates (FIG. 3) or tissue sections
[7] = tested on: cocaine receptors in squirrel monkey brain; test: Ex vivo autoradiography after intravenous administration; type: in vivo, squirrel monkeys
Description: From the in vitro autoradiographic studies, two conclusions were drawn: (a) cocaine receptors labelled by [^3 H]CFT distributed primarily to dopamine-rich brain regions and (b) the highly circumscribed distribution and low level of non-specific binding of [^3 H]CFT further supported the development of CFT as a PET imaging ligand for cocaine receptors in vivo. However, as the distribution pattern of a probe in vitro may not necessarily reflect its distribution in vivo, it was necessary to determine whether similar conclusions could be drawn using ex vivo autoradiographic techniques. The ex vivo autoradiographic distribution of [^3 H]CFT was determined following intravenous administration of [^3 H]CFT (1.0 or 2.5 nmol/kg) to squirrel monkeys (FIG. 4B). Brain sections from several A-P levels were exposed to [^3 H]-sensitive film. […] Nevertheless, the ex vivo labeling of brain regions by [^3 H] CFT corresponded closely to the in vitro autoradiographic pattern.
(§1) At the time these studies were completed, a higher affinity iodinated analog of [^3 H]CFT, [^125 I]RTI-55 (i.e., CIT, 2β-carbomethoxy-3β-(4-iodophenyl)tropane; Dupont-NEN), became available. […] This ligand was also tested by ex vivo autoradiography as an imaging probe.

[8] = tested on: cocaine recognition sites in squirrel monkey brain; test: In vitro autoradiography in squirrel monkey brain sections; type: binding
Experimental: To identify the distribution of cocaine recognition sites in the brain, autoradiographic techniques were utilized. Such techniques were particularly appropriate for this purpose because they are 100-1,000 times more sensitive than radioreceptor assays conducted in tissue homogenates. […] Three sequential procedures: parametric studies, in vitro autoradiographic techniques, and ex vivo autoradiographic techniques were conducted in tissue sections of squirrel monkey brains.
After establishing suitable conditions for autoradiography, systematic mapping of cocaine recognition sites were conducted in squirrel monkey brain at nine anterior-posterior levels. Tissue sections were incubated alone, or in the presence of excess (-)-cocaine to determine total and nonspecific binding of [^3 H]CFT, respectively.

[9] = tested on: caudate-putamen / striatum cocaine receptors; test: PET imaging with [^11 C]CFT
[10] = tested on: sites in the caudate putamen; test: [^125 I]RTI-55 labeling of sites in caudate putamen; type: binding
Experimental: as §1

[11] = tested on: serotonin transporter; settings: cited from earlier work
[12] = human caudate nucleus and putamen homogenates
[13] = [^3 H]CFT 1.0 or 2.5 nmol/kg i.v.

dopamine transporter, human caudate nucleus and putamen, sequence (Q01959 whole entry): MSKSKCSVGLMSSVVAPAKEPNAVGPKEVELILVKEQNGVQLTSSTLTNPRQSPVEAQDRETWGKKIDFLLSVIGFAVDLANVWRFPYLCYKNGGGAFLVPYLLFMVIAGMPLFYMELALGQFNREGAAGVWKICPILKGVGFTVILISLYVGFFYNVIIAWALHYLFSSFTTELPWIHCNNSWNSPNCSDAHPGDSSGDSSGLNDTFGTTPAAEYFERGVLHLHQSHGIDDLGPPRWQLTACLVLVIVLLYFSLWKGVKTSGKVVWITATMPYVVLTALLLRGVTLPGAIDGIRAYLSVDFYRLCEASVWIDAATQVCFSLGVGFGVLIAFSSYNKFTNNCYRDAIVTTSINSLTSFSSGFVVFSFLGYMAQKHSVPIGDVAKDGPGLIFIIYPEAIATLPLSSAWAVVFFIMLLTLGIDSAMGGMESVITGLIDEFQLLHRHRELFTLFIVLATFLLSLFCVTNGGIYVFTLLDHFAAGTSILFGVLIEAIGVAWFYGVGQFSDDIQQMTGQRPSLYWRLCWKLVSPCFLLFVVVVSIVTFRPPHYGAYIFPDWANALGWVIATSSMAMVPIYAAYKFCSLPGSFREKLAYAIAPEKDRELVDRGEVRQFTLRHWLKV
T2 sequence (Q9GJT6 whole entry): as the sequence (Q01959 whole entry) above, with V24M, I137V, P194S, S198G, D200N, S201G, S202P counted along it
T1 sequence (Q9GJT6 whole entry): as the sequence (Q01959 whole entry) above, with V24M, I137V, P194S, S198G, D200N, S201G, S202P counted along it

COC(=O)[C@H]1[C@@H](c2ccc(Cl)cc2)C[C@@H]2CC[C@H]1N2C [4'b (CCT), 2β-Carbomethoxy-3β-(4-chlorophenyl)tropane]
IC50 [1]: 1.4 ± 0.035 nM

COC(=O)[C@H]1[C@@H](c2cccc(Br)c2)C[C@@H]2CC[C@H]1N2C [4'd (3-CBT), 2β-Carbomethoxy-3β-(3-bromophenyl)tropane]
IC50 [1]: 7.93 ± 0.077 nM

COC(=O)[C@H]1[C@@H](c2cccc(I)c2)C[C@@H]2CC[C@H]1N2C [4'e (3-CIT), 2β-Carbomethoxy-3β-(3-iodophenyl)tropane]
IC50 [1]: 27.8 ± 3.05 nM

CCC[CH2][Sn]([CH2]CCC)([CH2]CCC)[c]1cccc([C@H]2C[C@@H]3CC[C@H]([C@H]2C(=O)OC)N3C)c1 [4'f, 2β-Carbomethoxy-3β-(3-tributylstannylphenyl)tropane]
IC50 [1]: 1080 ± 165 nM

COC(=O)[C@H]1[C@@H](c2ccccc2)C[C@@H]2CC[C@H]1N2C [4'g (WIN 35, 065-2)]
IC50 ([1]; read-out: IC50): 65 ± 12 nM

COC(=O)[C@H]1[C@@H](c2ccc(I)cc2)C[C@@H]2CC[C@H]1N2C [4'h (RTI-55), 2β-carbomethoxy-3β-(4-iodophenyl)tropane]
IC50 [1]: 1.08 ± 0.06 nM

COC(=O)[C@@H]1[C@H](OC(=O)c2ccccc2)C[C@H]2CC[C@@H]1N2C [(+)-cocaine]
rank order of potency for inhibiting [^3 H]CFT binding [2, 12]: Lu 19-005>CFT, mazindol, GBR 12909>(-)-cocaine>bupropion>(+)-cocaine

COC(=O)[C@H]1[C@@H](OC(=O)c2ccccc2)C[C@@H]2CC[C@H]1N2C [(-)-cocaine]
rank order of potency for inhibiting [^3 H]CFT binding [2, 12]: Lu 19-005>CFT, mazindol, GBR 12909>(-)-cocaine>bupropion>(+)-cocaine
extent of displacement of [^3 H]CFT [3]: full displacement of [^3 H]CFT
number of binding components [3]: at least two binding components
steepness of competition curve [3]: 0.61-0.89

COC(=O)[C@H]1[C@@H](OC(=O)c2ccccc2)C[C@@H]2CC[C@H]1N2 [(-)-norcocaine]
extent of displacement of [^3 H]CFT [3]: full displacement of [^3 H]CFT
number of binding components [3]: at least two binding components
steepness of competition curve [3]: 0.61-0.89

Fc1ccc(C(OCCN2CCN(CCCc3ccccc3)CC2)c2ccc(F)cc2)cc1 [GBR 12909]
rank order of potency for inhibiting [^3 H]CFT binding [2]: Lu 19-005>CFT, mazindol, GBR 12909>(-)-cocaine>bupropion>(+)-cocaine
number of binding components [3]: a single binding component
steepness of competition curve [3]: 0.94-1.1

CNC1CC(c2ccc(Cl)c(Cl)c2)c2ccccc21 (stereo not shown) [Lu 19-005]
number of binding components [3]: a single binding component
steepness of competition curve [3]: 0.94-1.1

COC(=O)[C@H]1[C@@H](c2ccc(F)cc2)C[C@@H]2CC[C@H]1N2C [[^3 H]CFT, 2β-carbomethoxy-3β-(4-fluorophenyl)tropane]
affinity relative to [^3 H]cocaine [4]: 18 times
character of [^3 H]CFT binding [2, 12]: saturable, stereoselective
stereoselective inhibition of binding ([5]; by enantiomers of cocaine and pseudococaine and diastereoisomers of WIN 35,065-2): inhibited stereoselectively
NaCl requirement for specific binding [5]: NaCl was necessary for specific binding
dissociation rate versus [^3 H]cocaine [5]: considerably slower
non-specific binding versus [^3 H]cocaine [5]: lower than that of [^3 H]cocaine
high-affinity component of total number of sites ([5]; high- and low-affinity binding components): approximately 10%
Bmax (density of binding sites) ([5]; monkey caudate-putamen homogenates): 388 pmol/g
Kd ([5]; read-out: K0.50, affinity, monkey caudate-putamen): 16 nM
[^3 H]CFT binding sites in postmortem human Parkinson's diseased caudate-putamen [6]: severely depleted
ex vivo binding compared with in vitro, cortex and thalamus [7, 13]: more prominent binding in vivo than in vitro
ex vivo distribution of binding [7, 13]: caudate, putaman>nucleus accumbens/olfactory tubercla, stria terminalis>substantia nigra>hypothalamus
density of [^3 H]CFT binding ([8]; bed nucleus of stria terminalis, ventral tegmental area, medial preoptic area, pineal, hippocampus, thalamic central nuclei): Low, though measurable, levels
specific binding as % of total binding ([8]; caudate nucleus, putamen, nucleus accumbens, olfactory tubercle): > 90%
density of [^3 H]CFT binding ([8]; dopamine-rich regions: caudate nucleus, putamen, nucleus accumbens, olfactory tubercle): High densities
density of [^3 H]CFT binding ([8]; substantia nigra, zona incerta, amygdala, hypothalamus): Intermediate densities
density of [^3 H]CFT binding ([8]; white matter, cerebellum, globus pallidus, cortical regions): Near background levels

COC(=O)[C@H]1[C@@H](c2ccc(F)cc2)C[C@@H]2CC[C@H]1N2C [[^11 C]CFT, 2β-carbomethoxy-3β-(4-fluorophenyl)tropane]
striatal-to-cerebellar ratio ([9]; 58 min): > 4.0
CFT binding in MPTP-treated Parkinsonian monkeys ([9]; MPTP-treated Parkinsonian): reduced
uptake in caudate-putamen ([9]; PET, 90 min imaging): high uptake
CFT binding in asymptomatic monkeys ([9]; asymptomatic): depletion was found

COC(=O)[C@H]1[C@@H](c2ccc(I)cc2)C[C@@H]2CC[C@H]1N2C [[^125 I]RTI-55, 2β-carbomethoxy-3β-(4-iodophenyl)tropane]
potency of labeling caudate putamen sites relative to [^3 H]CFT [10]: approximately 10 fold
ex vivo density ([7]; caudate-putamen): highest densities
ex vivo density ([7]; thalamus, cortex and brain stem nuclei): moderately high densities
additional sites labeled [11]: associated with the serotonin transporter

CC(NC(C)(C)C)C(=O)c1cccc(Cl)c1 (stereo not shown) [bupropion]
rank order of potency for inhibiting [^3 H]CFT binding [2]: Lu 19-005>CFT, mazindol, GBR 12909>(-)-cocaine>bupropion>(+)-cocaine
number of binding components [3]: a single binding component
steepness of competition curve [3]: 0.94-1.1

OC1(c2ccc(Cl)cc2)c2ccccc2C2=NCCN21 (stereo not shown) [mazindol]
rank order of potency for inhibiting [^3 H]CFT binding [2]: Lu 19-005>CFT, mazindol, GBR 12909>(-)-cocaine>bupropion>(+)-cocaine
displacement of bound [^11 C]CFT from striatum ([9]; cynomolgus monkey, in vivo): displaced bound [^11 C]CFT from the striatum
